Consider seven compounds from US11192888B2, “Antibacterial compounds” (priority 2017, dated 2021).

Experiment [1] has as its system Clostridium difficile strains (21 clinical, 7 reference).
In experiment [2] the test system is P. aeruginosa clinical strains and PAO1 (wild-type strain). Kind of experiment: Antibiotic sensitivity of P. aeruginosa clinical strains and PAO1 (MIC). Format: cell-based, Pseudomonas aeruginosa. The text has this: In this regard, four clinical isolates of P. aeruginosa were obtained from the University of Nottingham.

≈ marks a conversion by molar mass, not a printed value. Like-named read-outs stand apart in the source and are kept apart here. *1 amine or outer side, *2 acyl side, *3 side chain or, on linkers, in order; H or OH if unused. Where a SMILES comes first, the peptide text is derived from it. [ ]: non-standard residue; d: D form. dAla(ψthiazole) = C[C@@H](N[*:1])c1nc(C(=O)[*:2])cs1; Trp(4-Cl) = N[C@@H](Cc1c[nH]c2cccc(Cl)c12)C(=O)O; Dhb = C/C=C(\N)C(=O)O; Sar = CNCC(=O)O

`C/C=C1\NC(=O)[C@@H](C)NC(=O)CNC(=O)[C@H](Cc2c[nH]c3cccc(Cl)c23)NC(=O)[C@H](Cc2c[nH]c3ccccc23)NC(=O)c2csc(n2)[C@@H](C)NC(=O)CN(C)C1=O` [Compound 9, Cyclo[D-Ala-Thz-Trp-Trp(4-Cl)-Gly-D-Ala-Dhb-Sar]] (cyclo([Dhb][Sar][dAla(ψthiazole)]W[Trp(4-Cl)]G[dA])) had an MIC40 in experiment [1] (28 C. difficile strains) of 0.5 µg/mL (≈ 0.593 µM). Moreover, the MIC50 in experiment [1] (28 C. difficile strains) worked out at 0.50 µg/mL (≈ 0.593 µM). The compound further gave an MIC90 in experiment [1] (28 C. difficile strains) of 0.50 µg/mL (≈ 0.593 µM). The MIC in experiment [1] (C. difficile strain 630 (ribotype 012)) came to 0.25 µg/mL (≈ 0.296 µM); in experiment [1] (C. difficile strain ATCC 9689 (ribotype 001)) it was 0.5 µg/mL (≈ 0.593 µM); in experiment [1] (C. difficile strain ATCC 13366) it was 1 µg/mL (≈ 1.19 µM); in experiment [1] (C. difficile strain ATCC 43255) it was 0.25 µg/mL (≈ 0.296 µM); in experiment [1] (C. difficile strain ATCC 700057 (ribotype 038)) it was 0.25 µg/mL (≈ 0.296 µM); in experiment [1] (C. difficile strain ATCC BAA 1875 (ribotype 078)), 0.5 µg/mL (≈ 0.593 µM). For the same compound, the MIC in experiment [1] (C. difficile strain BI1-FDX^R) is 0.25 µg/mL (≈ 0.296 µM); in experiment [1] (C. difficile strain Clin. 1), 0.5 µg/mL (≈ 0.593 µM); in experiment [1] (C. difficile strain Clin. 2), 0.5 µg/mL (≈ 0.593 µM); in experiment [1] (C. difficile strain Clin. 3), 0.25 µg/mL (≈ 0.296 µM); in experiment [1] (C. difficile strain Clin. 5) it was 0.5 µg/mL (≈ 0.593 µM); in experiment [1] (C. difficile strain Clin. 6), 0.5 µg/mL (≈ 0.593 µM). The MIC in experiment [1] (C. difficile strain Clin. 7), in experiment [1] (C. difficile strain Clin. 8), in experiment [1] (C. difficile strain Clin. 9), in experiment [1] (C. difficile strain Clin. 10), in experiment [1] (C. difficile strain Clin. 11) and in experiment [1] (C. difficile strain Clin. 12) was 0.5 µg/mL (≈ 0.593 µM) each time. Further, the MIC is 0.5 µg/mL (≈ 0.593 µM) in experiment [1] (C. difficile strain Clin. 13); 0.5 µg/mL (≈ 0.593 µM) in experiment [1] (C. difficile strain Clin. 14); 0.5 µg/mL (≈ 0.593 µM) in experiment [1] (C. difficile strain Clin. 15); 0.25 µg/mL (≈ 0.296 µM) in experiment [1] (C. difficile strain Clin. 16); 0.5 µg/mL (≈ 0.593 µM) in experiment [1] (C. difficile strain Clin. 18); 0.5 µg/mL (≈ 0.593 µM) in experiment [1] (C. difficile strain Clin. 20). Also, the MIC in experiment [1] (C. difficile strain Clin. 21), in experiment [1] (C. difficile strain Clin. 22), in experiment [1] (C. difficile strain Clin. 23) and in experiment [1] (C. difficile strain Clin. 24) was 0.5 µg/mL (≈ 0.593 µM) each time.

For the compound Gentamicin, the MIC of antibiotic in experiment [2] (strain PAO1) is below 4 µM; in experiment [2] (strain W4) it was 8 µM; in experiment [2] (strain W14) it was 8 µM; in experiment [2] (strain W23), below 4 µM; in experiment [2] (strain W46) it was below 4 µM.

Take Colistin: the MIC of antibiotic was 3 µM in experiment [2] (strain PAO1); 3 µM in experiment [2] (strain W4); above 8 µM in experiment [2] (strain W14); 2 µM in experiment [2] (strain W23); 2 µM in experiment [2] (strain W46).

Take `C[C@H]1[C@H](NC(=O)/C(=N\OC(C)(C)C(=O)O)c2csc(N)n2)C(=O)N1S(=O)(=O)O` [Aztreonam]: the MIC of antibiotic was below 9 µM in experiment [2] (strain PAO1); 18 µM in experiment [2] (strain W4); above 92 µM in experiment [2] (strain W14); below 9 µM in experiment [2] (strain W23); below 9 µM in experiment [2] (strain W46).

Take `NCC[C@H](O)C(=O)N[C@@H]1C[C@H](N)[C@@H](O[C@H]2O[C@H](CN)[C@@H](O)[C@H](O)[C@H]2O)[C@H](O)[C@H]1O[C@H]1O[C@H](CO)[C@@H](O)[C@H](N)[C@H]1O` [Amikacin]: the MIC of antibiotic is below 14 µM in experiment [2] (strain PAO1); 24 µM in experiment [2] (strain W4); 41 µM in experiment [2] (strain W14); below 14 µM in experiment [2] (strain W23); below 14 µM in experiment [2] (strain W46).

Regarding `NC[C@H]1O[C@H](O[C@H]2[C@H](O)[C@@H](O[C@H]3O[C@H](CO)[C@@H](O)[C@H](N)[C@H]3O)[C@H](N)C[C@@H]2N)[C@H](N)C[C@@H]1O` [Tobramycin], the MIC of antibiotic in experiment [2] (strain PAO1) was below 4 µM; in experiment [2] (strain W4) it was 9 µM; in experiment [2] (strain W14), 25 µM; in experiment [2] (strain W23), below 4 µM; in experiment [2] (strain W46), below 4 µM.

Consider `C[C@@H](O)[C@H]1C(=O)N2C(C(=O)O)=C(S[C@@H]3CN[C@H](C(=O)N(C)C)C3)[C@H](C)[C@H]12` [Meropenem], for which the MIC of antibiotic in experiment [2] (strain PAO1) was above 45 µM; in experiment [2] (strain W4), above 45 µM; in experiment [2] (strain W14), 9 µM; in experiment [2] (strain W23), above 45 µM; in experiment [2] (strain W46), 14 µM.

As a reminder, the MIC50 is the lowest concentration that inhibits either 50% of growth or 50% of the strains tested, depending on the study. High values mean weaker potency, low ones greater potency. Usually MIC90 stands for an inhibitory concentration at the 90% level, which refers to growth in some studies and to a panel of isolates in others. The low end stands for greater potency, the high end for weaker potency. As usually defined, the MIC is the lowest concentration found to suppress growth. A lower MIC goes with a more susceptible organism.
